Measured values published in US10544103B2, “5-HT2 antagonists” (ANAMAR AB, priority 2015, dated 2020).

Molecular target: T1, 5-HT2B receptor (Homo sapiens, UniProt P41595)
T1 construct: host or cells: CHO-K1
Assay: 5-HT2B receptor binding, 3H-LSD ligand displacement assay
Conditions: for inhibition at 0.01 µM: 0.01 uM compound; for inhibition at 0.1 µM: 0.1 uM compound; for inhibition at 1 µM: 1 uM compound; for inhibition at 0.001 µM: 0.001 uM compound; for inhibition at 10 µM: 10 uM compound
Protocol: 5-HT2B receptor binding (performed at Eurofins Panlabs Taiwan, Ltd.) to human receptor protein expressed in CHO-K1 cells was determined in a ligand displacement assay using ^3H-lysergic acid diethylamide (LSD) as radioligand and ketanserine as a standard reference compound. Data is presented as % displacement of radioligand at indicated compound concentrations, see Table 1 and Table 2.

T1 sequence (P41595 whole entry): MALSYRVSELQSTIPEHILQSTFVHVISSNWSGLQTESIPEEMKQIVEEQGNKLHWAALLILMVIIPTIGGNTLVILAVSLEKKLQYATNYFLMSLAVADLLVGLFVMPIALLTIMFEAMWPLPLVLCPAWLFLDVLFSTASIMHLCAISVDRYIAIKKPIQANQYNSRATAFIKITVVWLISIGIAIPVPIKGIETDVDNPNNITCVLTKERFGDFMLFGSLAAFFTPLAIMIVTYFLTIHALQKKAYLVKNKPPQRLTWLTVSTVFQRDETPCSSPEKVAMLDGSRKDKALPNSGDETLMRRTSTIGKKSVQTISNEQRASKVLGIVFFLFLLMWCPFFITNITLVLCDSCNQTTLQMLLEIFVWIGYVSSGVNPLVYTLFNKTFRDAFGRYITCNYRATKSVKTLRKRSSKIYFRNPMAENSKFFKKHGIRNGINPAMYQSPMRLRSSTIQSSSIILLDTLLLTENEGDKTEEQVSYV

CC1CN(C(=N)N)N=C1c1cccc2ccccc12 (stereo not shown) [Example 24, 4-Methyl-3-(naphthalen-1-yl)-4,5-dihydro-1H-pyrazole-1-carboximidamide]
inhibition at 0.01 µM: 39%
inhibition at 0.1 µM: 86%
inhibition at 1 µM: 102%

CCCCCCCCCCCCNC(=N)N1CC(C)C(c2cccc(Cl)c2OC)=N1 (stereo not shown) [Example 82, 3-(3-Chloro-2-methoxyphenyl)-N-dodecyl-4-methyl-4,5-dihydro-1H-pyrazole-1-carboximidamide]
inhibition at 0.001 µM: 0%
inhibition at 0.01 µM: -4%
inhibition at 0.1 µM: 51%

CCCCCCNC(=N)N1CC(C)C(c2cccc(Cl)c2O)=N1 (stereo not shown) [Example 81, 3-(3-Chloro-2-hydroxyphenyl)-N-hexyl-4-methyl-4,5-dihydro-1H-pyrazole-1-carboximidamide]
inhibition at 0.001 µM: 62%
inhibition at 0.01 µM: 96%
inhibition at 0.1 µM: 97%

CC1CN(C(=N)N)N=C1c1c[nH]c2ccccc12 (stereo not shown) [Example 70, 3-(1H-Indol-3-yl)-4-methyl-4,5-dihydro-1H-pyrazole-1-carboximidamide]
inhibition at 0.01 µM: 38%
inhibition at 0.1 µM: 84%
inhibition at 1 µM: 98%

COc1c(Cl)cccc1C1=NN(C(=N)Nc2ccc(C(F)(F)F)cc2)CC1C (stereo not shown) [Example 112, 3-(3-Chloro-2-methoxyphenyl)-4-methyl-N-(4-(trifluoromethyl)phenyl)-4,5-dihydro-1H-pyrazole-1-carboximidamide]
inhibition at 0.001 µM: 1%
inhibition at 0.01 µM: 77%
inhibition at 0.1 µM: 97%

C[C@H]1CN(C(=N)N)N=C1c1cccc(Cl)c1O (single isomer, unassigned) [Example 72, (S)*-3-(3-chloro-2-hydroxyphenyl)-4-methyl-4,5-dihydro-1H-pyrazole-1-carboximidamide]
inhibition at 0.001 µM: -1%
inhibition at 0.01 µM: 21%
inhibition at 0.1 µM: 69%

Cc1ccccc1C1=NN(C(=N)N)CC1 [Example 6, 3-(2-Methylphenyl)-4,5-dihydro-1H-pyrazole-1-carboximidamide]
inhibition at 1 µM: 89%
inhibition at 10 µM: 99%

CC1CN(C(=N)N[C@@H](C)c2ccccc2)N=C1c1ccccc1O (stereo partly drawn) [Example 64, 3-(2-Hydroxyphenyl)-4-methyl-N—((S)-1-phenylethyl)-4,5-dihydro-1H-pyrazole-1-carboximidamide]
inhibition at 0.001 µM: 23%
inhibition at 0.01 µM: 43%

CC1CN(C(=N)Nc2ccc(Cl)cc2)N=C1c1cccc(Cl)c1O (stereo not shown) [Example 111, 3-(3-Chloro-2-hydroxyphenyl)-N-(4-chlorophenyl)-4-methyl-4,5-dihydro-1H-pyrazole-1-carboximidamide]
inhibition at 0.001 µM: 80%
inhibition at 0.01 µM: 99%
inhibition at 0.1 µM: 101%

CC1CN(C(=N)N)N=C1c1ccc(F)cc1O (stereo not shown) [Example 50, 3-(4-Fluoro-2-hydroxyphenyl)-4-methyl-4,5-dihydro-1H-pyrazole-1-carboximidamide]
inhibition at 0.01 µM: 42%
inhibition at 0.1 µM: 87%
inhibition at 1 µM: 96%

COc1ccccc1C1=NN(C(=N)Nc2ccc(C(F)(F)F)cc2)CC1C (stereo not shown) [Example 98, 3-(2-Methoxyphenyl)-4-methyl-N-(4-(trifluoromethyl)phenyl)-4,5-dihydro-1H-pyrazole-1-carboximidamide]
inhibition at 0.001 µM: 5%
inhibition at 0.01 µM: 41%
inhibition at 0.1 µM: 86%

CC1CN(C(=N)Nc2ccc(C(F)(F)F)cc2)N=C1c1cccc(Cl)c1O (stereo not shown) [Example 113, 3-(3-Chloro-2-hydroxyphenyl)-4-methyl-N-(4-(trifluoromethyl)phenyl)-4,5-dihydro-1H-pyrazole-1-carboximidamide]
inhibition at 0.001 µM: 59%
inhibition at 0.01 µM: 95%
inhibition at 0.1 µM: 99%

COc1ccccc1C1=NN(C(=N)Nc2ccccc2)CC1C (stereo not shown) [Example 96, 3-(2-Methoxyphenyl)-4-methyl-N-phenyl-4,5-dihydro-1H-pyrazole-1-carboximidamide]
inhibition at 0.001 µM: 19%
inhibition at 0.01 µM: 43%
inhibition at 0.1 µM: 93%

CCCCNC(=N)N1CC(C)C(c2cccc(Cl)c2OC)=N1 (stereo not shown) [Example 78, N-butyl-3-(3-chloro-2-methoxyphenyl)-4-methyl-4,5-dihydro-1H-pyrazole-1-carboximidamide]
inhibition at 0.001 µM: 49%
inhibition at 0.01 µM: 85%
inhibition at 0.1 µM: 98%

CC1CN(C(=N)NO)N=C1c1ccccc1O (stereo not shown) [Example 44, N-Hydroxy-3-(2-hydroxyphenyl)-4-methyl-4,5-dihydro-1H-pyrazole-1-carboximidamide]
inhibition at 0.001 µM: 12%
inhibition at 0.01 µM: 30%
inhibition at 0.1 µM: 85%
inhibition at 1 µM: 94%

CCOC(=O)NC(=N)N1CC(C)C(c2cccc(Cl)c2OC(=O)OCC)=N1 (stereo not shown) [Example 118, Ethyl ((3-(3-chloro-2-((ethoxycarbonyl)oxy)phenyl)-4-methyl-4,5-dihydro-1H-pyrazol-1-yl)(imino)methyl)carbamate]
inhibition at 0.01 µM: 0%
inhibition at 0.1 µM: 54%
inhibition at 1 µM: 91%

CC1CN(C(=N)NC#N)N=C1c1cccc(Cl)c1O (stereo not shown) [Example 91, 3-(3-Chloro-2-hydroxyphenyl)-N-cyano-4-methyl-4,5-dihydro-1H-pyrazole-1-carboximidamide]
inhibition at 0.001 µM: -15%
inhibition at 0.01 µM: 27%
inhibition at 0.1 µM: 74%

COc1c(Cl)cccc1C1=NN(C(=N)Nc2ccc(F)cc2)CC1C (stereo not shown) [Example 108, 3-(3-Chloro-2-methoxyphenyl)-N-(4-fluorophenyl)-4-methyl-4,5-dihydro-1H-pyrazole-1-carboximidamide]
inhibition at 0.001 µM: 29%
inhibition at 0.01 µM: 83%
inhibition at 0.1 µM: 101%

COc1ccc(CNC(=N)N2CC(C)C(c3ccccc3O)=N2)cc1 (stereo not shown) [Example 59, 3-(2-Hydroxyphenyl)-N-(4-methoxybenzyl)-4-methyl-4,5-dihydro-1H-pyrazole-1-carboximidamide]
inhibition at 0.001 µM: 20%
inhibition at 0.01 µM: 74%

CC1CN(C(=N)N)N=C1c1ccnc2ccccc12 (stereo not shown) [Example 71, 4-Methyl-3-(quinolin-4-yl)-4,5-dihydro-1H-pyrazole-1-carboximidamide]
inhibition at 0.01 µM: 11%
inhibition at 0.1 µM: 20%
inhibition at 1 µM: 43%

CC1CN(C(=N)N[C@H](C)c2ccccc2)N=C1c1ccccc1O (stereo partly drawn) [Example 63, 3-(2-Hydroxyphenyl)-4-methyl-N—((R)-1-phenylethyl)-4,5-dihydro-1H-pyrazole-1-carboximidamide]
inhibition at 0.001 µM: 36%
inhibition at 0.01 µM: 81%

CC1CN(C(=N)N)N=C1c1ccc(O)cc1O (stereo not shown) [Example 67, 3-(2,4-Dihydroxyphenyl)-4-methyl-4,5-dihydro-1H-pyrazole-1-carboximidamide]
inhibition at 0.01 µM: 9%
inhibition at 0.1 µM: 31%
inhibition at 1 µM: 72%

COc1ccccc1C1=NN(C(=N)NCC(F)(F)C(F)(F)C(F)(F)F)CC1C (stereo not shown) [Example 92, N-(2,2,3,3,4,4,4-Heptafluorobutyl)-3-(2-methoxyphenyl)-4-methyl-4,5-dihydro-1H-pyrazole-1-carboximidamide]
inhibition at 0.001 µM: -3%
inhibition at 0.01 µM: 22%
inhibition at 0.1 µM: 78%

CC1CN(C(=N)N)N=C1c1cc(Cl)ccc1O (stereo not shown) [Example 52, 3-(5-Chloro-2-hydroxyphenyl)-4-methyl-4,5-dihydro-1H-pyrazole-1-carboximidamide]
inhibition at 0.01 µM: 34%
inhibition at 0.1 µM: 72%
inhibition at 1 µM: 95%

COc1c(F)cccc1C1=NN(C(=N)N)CC1C (stereo not shown) [Example 47, 3-(3-Fluoro-2-methoxyphenyl)-4-methyl-4,5-dihydro-1H-pyrazole-1-carboximidamide]
inhibition at 0.01 µM: 15%
inhibition at 0.1 µM: 68%
inhibition at 1 µM: 92%

CNC(=N)N1CC(C)C(c2ccccc2O)=N1 (stereo not shown) [Example 40, 3-(2-Hydroxyphenyl)-N,4-dimethyl-4,5-dihydro-1H-pyrazole-1-carboximidamide]
inhibition at 0.001 µM: 1%
inhibition at 0.01 µM: 42%
inhibition at 0.1 µM: 92%
inhibition at 1 µM: 99%

CCCCCCNC(=N)N1CC(C)C(c2cccc(Cl)c2OC)=N1 (stereo not shown) [Example 80, 3-(3-Chloro-2-methoxyphenyl)-N-hexyl-4-methyl-4,5-dihydro-1H-pyrazole-1-carboximidamide]
inhibition at 0.001 µM: 13%
inhibition at 0.01 µM: 68%
inhibition at 0.1 µM: 97%

COc1c(Cl)cccc1C1=NN(C(=N)NCC(F)(F)C(F)(F)C(F)(F)F)CC1C (stereo not shown) [Example 106, 3-(3-Chloro-2-methoxyphenyl)-N-(2,2,3,3,4,4,4-heptafluorobutyl)-4-methyl-4,5-dihydro-1H-pyrazole-1-carboximidamide]
inhibition at 0.001 µM: 16%
inhibition at 0.01 µM: 57%
inhibition at 0.1 µM: 93%

CC1CN(C(=N)NCc2ccc(Cl)cc2Cl)N=C1c1ccccc1O (stereo not shown) [Example 57, N-(2,4-Dichlorobenzyl)-3-(2-hydroxyphenyl)-4-methyl-4,5-dihydro-1H-pyrazole-1-carboximidamide]
inhibition at 0.001 µM: 21%
inhibition at 0.01 µM: 78%

COc1ccc(F)cc1C1=NN(C(=N)N)CC1C (stereo not shown) [Example 45, 3-(5-Fluoro-2-methoxyphenyl)-4-methyl-4,5-dihydro-1H-pyrazole-1-carboximidamide]
inhibition at 0.01 µM: 26%
inhibition at 0.1 µM: 54%
inhibition at 1 µM: 86%

CC1CN(C(=N)NC2CCCCC2)N=C1c1cccc(Cl)c1O (stereo not shown) [Example 85, 3-(3-Chloro-2-hydroxyphenyl)-N-cyclohexyl-4-methyl-4,5-dihydro-1H-pyrazole-1-carboximidamide]
inhibition at 0.001 µM: 47%
inhibition at 0.01 µM: 93%
inhibition at 0.1 µM: 101%

N=C(N)N1CCC(c2ccccc2Cl)=N1 [Example 5, 3-(2-Chlorophenyl)-4,5-dihydro-1H-pyrazole-1-carboximidamide]
inhibition at 1 µM: 95%
inhibition at 10 µM: 100%

Cc1c(C2=NN(C(=N)N)C(C)C2)sc2ccccc12 (stereo not shown) [Example 29, 5-Methyl-3-(3-methylbenzo[b]thiophen-2-yl)-4,5-dihydro-1H-pyrazole-1-carboximidamide]
inhibition at 0.1 µM: 69%
inhibition at 1 µM: 97%
